Data from patent US5260189A, “Synthetic HIV-like peptides their compositions and uses” (Immunodiagnostics, Inc., priority 1992, dated 1993).
Entries after “also recorded” stand apart in the source; their conditions may differ.

Tests used:
antibodies to HIV-1 [1] = experiment: EIA of peptide-protein conjugates coated on polystyrene microtiter plates, human sera; format: binding; settings: for immunoreactivity with HIV-1 antibodies (FIG. 1): C-terminal BSA-SMCC conjugates, 10 micrograms peptide/ml coating, 1:101 dilution of pooled HIV+ / HIV- sera
Description: (§1) The free peptides or peptide-protein conjugates of FIGS. 1-13 were initially screened for immunoreactivity by coating each well of polystyrene microtiter EIA plates (Costar, Cambridge, Mass., U.S.A.) with 0.2 ml amounts of concentrations of 5-50 micrograms/ml peptide in Tris buffer, 10 mM, pH 8.0, at 4° C. overnight. Peptides or peptide-protein conjugates showing immunoreactivity by EIA were then further diluted for coating to determine the minimal concentrations required that allowed maximal immunoreactivity with antibodies to HIV, and minimal nonspecific reactivity with normal sera. The EIA tests were performed as follows: The coating solution was removed from each well and the wells were blocked at 37° C. for 30 minutes with a solution of 50 mM phosphate, 100 mM NaCl, pH 7.4, 1% BSA, 0.5% gelatin. The wells were then aspirated dry with a microtiter plate washer and washed 3 times with a solution of 50 mM phosphate, 100 mM NaCl, 0.05% Tween 20, pH 7.4 (PBST). A 1:101 dilution (in PBST with 1% BSA, 1% NRS) of the primate serum to be tested was then added as 0.2 ml to each washed well and the plates were incubated at 37° C. for 30 minutes. The plates were then washed×3 with PBST, and 0.2 ml amounts of a 1:2000 dilution of goat anti-human (GAH) peroxidase enzyme conjugate (Organon Teknika, Cappel, Melvern, Pa., U.S.A.) that recognized human IgG, IgA, and IgM were added to each well, and the plates were incubated for 30 minutes at 37° C. The plates were then washed×3 with PBST and incubated with 0.2 ml/well substrate consisting of 0.1M citric acid pH 5.2, 0.1 mg/ml o-phenylene diamine, 0.01% H2 O2, at room temperature in the dark for 10 minutes. Reactions were stopped with 50 microliters of 4N H2 SO4, and the color development was quantitated in a Multiscan plate reader at A492. In each series of experiments positive and negative controls were included, and all tests were done in duplicate or quadruplicate. Most peptides and peptide conjugates were initially screened against a 1:101 dilution of pools of HIV positive or HIV negative sera, and the same serum pool was used to allow quantitative comparison of immunoreactivity of different free peptides or peptide-protein conjugates.
(§2) The peptides in FIGS. 1 and 5 were synthesized as described in Example 1 and conjugated to KLH or BSA as described in Example 2. These peptide-protein conjugates were coated to polystyrene microtiter plates all at a concentration 10 micrograms peptide/ml and evaluated for immunoreactivity as described in Example 3, using a 1:101 dilution of a pool of sera (HIV+/SIV+, respectively) containing antibodies to HIV-1 (FIG. 1) or to HIV-2 (FIG. 5), as well as pooled serum (HIV-/SIV-, respectively) containing no antibodies to HIV-1 or HIV-2. […] Since sera from patients infected with HIV-2 are relatively unavailable in the United States, the immunoreactivity of HIV-2 synthetic peptides was assessed using serum from macaques infected with SIV, obtained from the University of Washington Primate Center, Seattle, Wash., U.S.A. The AA sequence of SIV is nearly identical to HIV-2 in the region of the peptides synthesized (see Myers et al., Human Retroviruses and AIDS, 1988. A compilation of nucleic acid and amino acid sequences. Los Alamos National Laboratory, Los Alamos, N. Mex., 87545, USA).

antibodies to SIV/HIV-2 = experiment: EIA of peptide-protein conjugates coated on polystyrene microtiter plates, macaque sera; format: binding, rhesus macaque (Macaca mulatta); settings: for discrimination of positive from negative macaque sera (FIG. 7): peptide-BSA conjugates; for immunoreactivity with SIV/HIV-2 antibodies (FIG. 5): C-terminal BSA-SMCC conjugates, 10 micrograms peptide/ml coating, 1:101 dilution of pooled SIV+ / SIV- macaque sera
Description: For all of the immunoassays employing human serum, the serum samples were obtained from the King County Health Department, Seattle, Wash., U.S.A., and each serum had been characterized as positive or negative with respect to antibodies to HIV-1, as determined by testing with the commercially licensed Genetic Systems and or DuPont EIA tests. Serum from rhesus macaque monkeys (Macaca mulatta) was obtained from the University of Washington, Seattle, Wash., U.S.A., and had been characterized by a SIV whole virus lysate EIA as either containing or not containing antibodies to SIV which is nearly identical in sequence to HIV-2 in the region of the peptide epitopes studied.
as §1, §2

Antibodies to HIV-2 = experiment: Detection of seroconversion in macaques experimentally infected with SIV, EIA; format: binding, macaque
Description: as §1
The immunoreactivity of the HIV-2 peptide BSA conjugates 2S24, (2S24 plus 5S86), and 5S92 was evaluated for detection of seroconversion in macaques using serial sera collected over a 16 week period from 7 macaques experimentally infected with SIV at week 0.

antibodies to HIV-1 [2] = experiment: EIA of p24 synthetic peptide-BSA conjugates with serum pools and individual sera; format: binding, human
Description: as §1
FIG. 8 illustrates the immunoreactivity and AA sequences of synthetic peptides of the p24 protein of HIV-1, when conjugated to BSA via their C-termini using SMCC, and reacted with a pool of approximately 50 sera from persons containing antibody to HIV-1, or with a pool of approximately 30 sera from individuals devoid of antibody to HIV-1. […] No negative sera (0/85, 0%) reacted, and 17 positive sera (17/98, 17%) were immunoreactive. It has been reported that individuals lose antibodies to p24 during the course of progression from asymptomatic infection to clinical disease and AIDS (Franchini et al., Blood 69:(2):437-441, 1987, and Weber et al., Lancet i:119-122, 1987), which may explain the lower frequency of antibodies to this peptide in the sera tested.

[3] = BSA-SMCC conjugate, 85 individual sera without antibodies to HIV-1
[4] = BSA-SMCC conjugate, 98 individual sera containing antibodies to HIV-1

AVERYLKDQQLLGC [2S01]
immunoreactivity with HIV-1 antibodies (FIG. 1) (antibodies to HIV-1 [1]): significantly less immunoreactive

SGKLICTTAVPWNASGC [2S13]
immunoreactivity with HIV-1 antibodies (FIG. 1) (antibodies to HIV-1 [1]): Significant immunoreactivity; also recorded: higher reactivity

GCSGKLICTTAVPWNGC [2S11]
immunoreactivity with HIV-1 antibodies (FIG. 1) (antibodies to HIV-1 [1]): Significant immunoreactivity; also recorded: higher reactivity

IKQLQARILAVERYLKDQQ [4S24, reference compound]
immunoreactivity with HIV-1 antibodies (FIG. 1) (antibodies to HIV-1 [1]): lower immunoreactivity

YLKDQQLLGIWGCSGC [2S03]
immunoreactivity with HIV-1 antibodies (FIG. 1) (antibodies to HIV-1 [1]): significantly less immunoreactive

IWGCSGKMICTTAVPGC [5S76, unnatural variant of HIV-1 gp41 peptide 2S09]
number of positive samples giving A492 less than 1.0 (antibodies to HIV-1 [1]; BSA-SMCC conjugate, 98 positive human sera (FIGS. 11A, 11B)): Five

SWGCAFRQVCHTSVPGC [5S86, HIV-2/SIV natural peptide]
discrimination of positive from negative macaque sera (FIG. 7) (antibodies to SIV/HIV-2): most favorable performances

ERYLKDQQLLGIWGC [2S02]
immunoreactivity with HIV-1 antibodies (FIG. 1) (antibodies to HIV-1 [1]): significantly less immunoreactive

QQLLGIWGCSGKLICGC [3S36]
immunoreactivity with HIV-1 antibodies (FIG. 1) (antibodies to HIV-1 [1]): Significant immunoreactivity

KDQQLLGIWGCSGKLGC [2S04]
immunoreactivity with HIV-1 antibodies (FIG. 1) (antibodies to HIV-1 [1]): Significant immunoreactivity

RILAVERYLKDQQLLGIWGCSGKLIC [4S25, reference compound]
immunoreactivity with HIV-1 antibodies (FIG. 1) (antibodies to HIV-1 [1]): Significant immunoreactivity; also recorded: lower immunoreactivity; also recorded: lower or comparable immunoreactivity

DQARLNSWGCAFRQVC [2S24]
Reactivity by Peptide-BSA Conjugate (reactive macaques/7) (Antibodies to HIV-2; Week 0 (SIV infection at week 0)): 0/7 | Reactivity by Peptide-BSA Conjugate (reactive macaques/7) (Antibodies to HIV-2; Week 1): 0/7 | Reactivity by Peptide-BSA Conjugate (reactive macaques/7) (Antibodies to HIV-2; Week 2): 1/7 | Reactivity by Peptide-BSA Conjugate (reactive macaques/7) (Antibodies to HIV-2; Week 3): 2/7 | Reactivity by Peptide-BSA Conjugate (reactive macaques/7) (Antibodies to HIV-2; Week 4): 4/7 | Reactivity by Peptide-BSA Conjugate (reactive macaques/7) (Antibodies to HIV-2; Week 6): 6/7 | Reactivity by Peptide-BSA Conjugate (reactive macaques/7) (Antibodies to HIV-2; Week 8): 7/7 | Reactivity by Peptide-BSA Conjugate (reactive macaques/7) (Antibodies to HIV-2; Week 12): 7/7 | Reactivity by Peptide-BSA Conjugate (reactive macaques/7) (Antibodies to HIV-2; Week 16): 7/7 | immunoreactivity with SIV/HIV-2 antibodies (FIG. 5) (antibodies to SIV/HIV-2): Significant immunoreactivity; also recorded: best immunoreactivity; also recorded: maximally immunoreactive | discrimination of positive from negative macaque sera (FIG. 7) (antibodies to SIV/HIV-2): most favorable performances

IWGCSGKLICTTAVPGC [2S09]
immunoreactivity with individual positive sera (FIGS. 10B, 10C) (antibodies to HIV-1 [1]; BSA-SMCC conjugate, 98 HIV-1 antibody positive human sera): some positive samples had very low immunoreactivity | immunoreactivity with HIV-1 antibodies (FIG. 1) (antibodies to HIV-1 [1]): Significant immunoreactivity; also recorded: slightly superior immunoreactivity; also recorded: maximally immunoreactive; also recorded: higher reactivity

SWGCAFRQVCHTTVPGC [2S27]
immunoreactivity with SIV/HIV-2 antibodies (FIG. 5) (antibodies to SIV/HIV-2): Significant immunoreactivity; also recorded: best immunoreactivity; also recorded: maximally immunoreactive | discrimination of positive from negative macaque sera (FIG. 7) (antibodies to SIV/HIV-2): most favorable performances

CSGKLICTTAVPWNAGC [3S51]
immunoreactivity with HIV-1 antibodies (FIG. 1) (antibodies to HIV-1 [1]): Significant immunoreactivity; also recorded: higher reactivity

KLICTTAVPWNASWSGC [2S15]
immunoreactivity with HIV-1 antibodies (FIG. 1) (antibodies to HIV-1 [1]): Significant immunoreactivity; also recorded: higher reactivity

ALGPAATLEEMMTACGC [5S94, HIV-1 p24 peptide with GC tail]
negative sera reacting (antibodies to HIV-1 [2]; [3]): 0/85 | negative sera reacting, percent (antibodies to HIV-1 [2]; [3]): 0% | positive sera immunoreactive (antibodies to HIV-1 [2]; [4]): 17/98 | positive sera immunoreactive, percent (antibodies to HIV-1 [2]; [4]): 17% | immunoreactivity with serum pools (FIG. 8) (antibodies to HIV-1 [2]; BSA-SMCC conjugates, pool of approximately 50 HIV+ sera and approximately 30 HIV- sera): immunoreactive peptide; also recorded: significant immunoreactivity

LLGIWGCSGKLICTTGC [2S06]
immunoreactivity with HIV-1 antibodies (FIG. 1) (antibodies to HIV-1 [1]): Significant immunoreactivity

LGIWGCSGKLICTTAGC [2S07]
immunoreactivity with HIV-1 antibodies (FIG. 1) (antibodies to HIV-1 [1]): Significant immunoreactivity

GKLICTTAVPWNASWGC [3S55]
immunoreactivity with HIV-1 antibodies (FIG. 1) (antibodies to HIV-1 [1]): Significant immunoreactivity; also recorded: higher reactivity
